Laboratory results taken from PubChem BioAssay (NCI).
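Step 1: Grow cells in 96-well plates. Step 2: Expose to compound for 48 hours at 5 concentrations. Step 3: Interpolate endpoints linearly; if unreached, use highest concentration. Abbreviation: GI50, concentration required for 50% inhibition of growth. TGI denotes the concentration required for complete inhibition of growth.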

Key:
Experiment in all cases: growth of human tumour cells (NCI), 48 h
[1] = test system: IGROV1 ovarian
[2] = test system: TK-10 renal
[3] = test system: HOP-92 NSCLC
[4] = test system: HCT-116 colon
[5] = test system: HCC-2998 colon
[6] = test system: NCI-H226 lung
[7] = test system: SNB-75 CNS
[8] = test system: PC-3 prostate
[9] = test system: RPMI-8226 leukemia
[10] = test system: KM12 colon
[11] = test system: OVCAR-8 ovarian
[12] = test system: NCI-H23 lung
[13] = test system: EKVX NSCLC
[14] = test system: SN12C renal
[15] = test system: MALME-3M melanoma
[16] = test system: U251 CNS
[17] = test system: UACC-62 melanoma
[18] = test system: MOLT-4 leukemia
[19] = test system: SF-295 CNS
[20] = test system: HT29 colon
[21] = test system: ACHN renal
[22] = test system: A549 NSCLC
[23] = test system: MDA-MB-435
[24] = test system: LOX IMVI melanoma
[25] = test system: SK-OV-3 ovarian
[26] = test system: CAKI-1 renal
[27] = test system: NCI/ADR-RES ovarian
[28] = test system: SK-MEL-28 melanoma
[29] = test system: SF-539 CNS

COC(=O)[C@@H]1CCCN1C(=O)[C@@H]1CCCN1C(=O)[C@H](Cc1ccccc1)NC(=S)Nc1cc(C(F)(F)F)cc(C(F)(F)F)c1
GI50 [1]: 7.24 µM
TGI [1]: > 100 µM
GI50 [2]: 5.41 µM
TGI [2]: > 100 µM
GI50 [3]: 1.77 µM
TGI [3]: 5.65 µM
GI50 [4]: 3.01 µM
TGI [4]: 15.2 µM
GI50 [5]: 2.65 µM
TGI [5]: 7.06 µM
GI50 [6]: 3.39 µM
TGI [6]: > 100 µM
GI50 [7]: 2.06 µM
TGI [7]: 61 µM
GI50 [8]: 2.72 µM
TGI [8]: 26.2 µM
GI50 [9]: 3.36 µM
TGI [9]: 41 µM
GI50 [10]: 3.93 µM
TGI [10]: > 100 µM
GI50 [11]: 4.31 µM
TGI [11]: > 100 µM
GI50 [12]: 3.16 µM
TGI [12]: > 100 µM
GI50 [13]: 3.07 µM
TGI [13]: > 100 µM
GI50 [14]: 3.47 µM
TGI [14]: > 100 µM
GI50 [15]: 5.53 µM
TGI [15]: > 100 µM
GI50 [16]: 2.79 µM
TGI [16]: 13.2 µM
GI50 [17]: 3.3 µM
TGI [17]: 63.5 µM
GI50 [18]: 2.88 µM
TGI [18]: 7.88 µM
GI50 [19]: 2.16 µM
TGI [19]: 4.82 µM
GI50 [20]: 2.76 µM
TGI [20]: 6.51 µM
GI50 [21]: 3.98 µM
TGI [21]: > 100 µM
GI50 [22]: 3.82 µM
TGI [22]: > 100 µM
GI50 [23]: 3.29 µM
TGI [23]: > 100 µM
GI50 [24]: 2.6 µM
TGI [24]: 9.89 µM
GI50 [25]: 9.26 µM
TGI [25]: > 100 µM
GI50 [26]: 3.55 µM
TGI [26]: > 100 µM
GI50 [27]: 2.99 µM
TGI [27]: > 100 µM
GI50 [28]: 3.48 µM
TGI [28]: > 100 µM
GI50 [29]: 4.51 µM
